Data as given in article PMC8097023, “Structures of a non-ribosomal peptide synthetase condensation domain suggest the basis of substrate selectivity” (Nature Communications, 2021).

How the values were obtained:
[1] = target: T1, PCP2-C3 didomain of fuscachelin NRPS FscG (Thermobifida fusca, UniProt Q47NR9); assay: X-ray crystal structure, […] Å; assay type: binding; conditions: covalent; PPant on S2514 of PCP2; arm at C3 acceptor entrance, kept out of the active site by R2577
T1 construct: gene Tfu_1867; PCP2-C3 didomain fragment; C3 = residues 2558-2999, PPant site S2514; His-SUMO tag (pOPIN-S) cleaved; made in E. coli BL21(DE3) entD-; monomeric, two copies in the asymmetric unit, PCP2 at the acceptor site of the other chain
T1 sequence (Q47NR9 2481-3008): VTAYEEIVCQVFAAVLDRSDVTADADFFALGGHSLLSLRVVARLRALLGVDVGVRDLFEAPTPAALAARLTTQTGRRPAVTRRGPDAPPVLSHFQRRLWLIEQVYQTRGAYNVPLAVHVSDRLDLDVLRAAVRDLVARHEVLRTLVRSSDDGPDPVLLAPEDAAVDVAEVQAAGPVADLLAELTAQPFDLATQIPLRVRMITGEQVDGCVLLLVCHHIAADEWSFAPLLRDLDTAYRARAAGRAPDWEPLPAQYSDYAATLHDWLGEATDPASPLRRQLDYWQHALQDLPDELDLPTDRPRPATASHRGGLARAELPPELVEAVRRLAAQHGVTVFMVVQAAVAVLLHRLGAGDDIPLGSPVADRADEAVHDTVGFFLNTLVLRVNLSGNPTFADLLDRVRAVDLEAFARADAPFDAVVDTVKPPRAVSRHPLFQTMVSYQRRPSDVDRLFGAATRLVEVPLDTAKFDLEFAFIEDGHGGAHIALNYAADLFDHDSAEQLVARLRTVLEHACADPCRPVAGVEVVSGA

[2] = target: T2, PCP2-C3 didomain of fuscachelin NRPS FscG (Thermobifida fusca, UniProt Q47NR9, R2577G); assay: X-ray crystal structure, […] Å; assay type: binding; conditions: covalent; PPant on S2514 of PCP2, fully extended through the acceptor channel into the C3 active site
T2 construct: gene Tfu_1867; PCP2-C3 didomain fragment; C3 = residues 2558-2999, PPant site S2514; His-SUMO tag (pOPIN-S) cleaved; made in E. coli BL21(DE3) entD-; monomeric, two copies in the asymmetric unit, PCP2 at the acceptor site of the other chain
T2 sequence (Q47NR9 entry or part of it R2577G): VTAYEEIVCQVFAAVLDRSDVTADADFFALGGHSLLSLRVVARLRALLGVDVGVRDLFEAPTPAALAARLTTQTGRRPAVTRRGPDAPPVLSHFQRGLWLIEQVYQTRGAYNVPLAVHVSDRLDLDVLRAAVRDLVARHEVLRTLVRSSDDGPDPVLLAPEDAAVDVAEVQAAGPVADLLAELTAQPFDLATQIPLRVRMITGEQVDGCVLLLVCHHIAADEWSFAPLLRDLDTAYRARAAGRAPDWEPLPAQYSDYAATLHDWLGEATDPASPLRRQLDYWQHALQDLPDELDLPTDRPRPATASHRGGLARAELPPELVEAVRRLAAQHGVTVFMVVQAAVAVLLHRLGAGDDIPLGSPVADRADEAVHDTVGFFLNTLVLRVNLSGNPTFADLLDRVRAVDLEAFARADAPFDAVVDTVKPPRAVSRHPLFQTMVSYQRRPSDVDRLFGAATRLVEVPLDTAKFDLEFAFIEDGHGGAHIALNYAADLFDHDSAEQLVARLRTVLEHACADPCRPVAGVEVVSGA

`CC(C)(COP(=O)(O)O)[C@@H](O)C(=O)NCCC(=O)NCCS` [PPant] was tested. Which “X-ray crystal structure, 2.2 Å” value [1] did it give?
The value was “Having confirmed the presence of a PPant arm, we modeled this into the electron density”.

And the “X-ray crystal structure, 2 Å” value [2]?
The value was “PPant moiety, which now fully extends thought the acceptor channel into the active site”.
